Measured values as given in article PMC12775434, “Ultra-large virtual screening unveils potent agonists of the neuromodulatory orphan receptor GPR139” (Nature Communications, 2025).
“And” between values parts separate entries of the source, which are not always exact repeats. Identical values can stand only once. Like-named read-outs stand apart in the source and are kept apart here.

Biological target: T1, GPR139 (Homo sapiens, UniProt Q6DWJ6)
T1 sequence (Q6DWJ6 1-353): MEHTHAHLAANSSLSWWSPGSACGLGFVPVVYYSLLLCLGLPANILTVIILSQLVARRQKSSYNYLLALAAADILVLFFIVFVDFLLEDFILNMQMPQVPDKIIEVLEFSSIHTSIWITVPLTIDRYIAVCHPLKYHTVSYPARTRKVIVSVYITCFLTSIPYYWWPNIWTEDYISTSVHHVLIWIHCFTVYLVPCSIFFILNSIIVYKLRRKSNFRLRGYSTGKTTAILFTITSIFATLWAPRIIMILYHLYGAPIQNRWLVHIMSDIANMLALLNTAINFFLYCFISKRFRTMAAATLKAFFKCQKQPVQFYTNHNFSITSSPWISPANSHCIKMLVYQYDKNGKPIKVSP
Experiment: Ca2+ mobilization assay, agonist mode, stable GPR139-CHOk1 cell line
Type: cell-based
Details: for Emax: normalized to Lundbeck Cmp 1a
Outline: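 Agonist activity of compounds is assessed in stably transfected CHO-K1 cells using the calcium dye Fluo-4 at 37 °C in HEPES-buffered HBSS (pH 7.4). Efficacy is expressed relative to the reference agonist Lundbeck Cmp 1a, set as 100%.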

Q: What does the source list for `Cc1noc(CNC(=O)C2(C)CCCCN2C(=O)c2ccccc2)n1` (stereo not drawn) [Compound 4, CC1=NOC(CNC(=O)C2(C)CCCCN2C(=O)C=3C=CC=CC3)=N1]?
A: Ca2+ signal (% of Cmp 1a) (0.1 µM, individual replicates (Supplementary Figure 3)): -4.2 % of Cmp 1a and 0.43 % of Cmp 1a; Ca2+ signal (% of Cmp 1a) (1 µM, individual replicates (Supplementary Figure 3)): 9.8 % of Cmp 1a and 4.1 % of Cmp 1a; Ca2+ signal (% of Cmp 1a) (10 µM, individual replicates (Supplementary Figure 3)): 51.3 % of Cmp 1a and 47.8 % of Cmp 1a; Ca2+ signal (% of Cmp 1a) (Agonist mode, individual replicates (Supplementary Figure 1)): 75 % of Cmp 1a and 80 % of Cmp 1a and 81 % of Cmp 1a; EC50 (Supplementary Table 2, mean ± SEM, read-out: pEC50 Ca2+ (converted)): 3.98 µM; Emax (Supplementary Table 2, mean ± SEM, read-out: Emax (%) Ca2+): 100 ± 7%; Ca2+ signal (% of Cmp 1a) (log [Compound] M -4.5, replicate experiments): 98 % of Cmp 1a and 82 % of Cmp 1a; Ca2+ signal (% of Cmp 1a) (log [Compound] M -5.0, replicate experiments): 75 % of Cmp 1a and 63 % of Cmp 1a; Ca2+ signal (% of Cmp 1a) (log [Compound] M -5.5, replicate experiments): 44 % of Cmp 1a and 46 % of Cmp 1a; Ca2+ signal (% of Cmp 1a) (log [Compound] M -6.0, replicate experiments): 13 % of Cmp 1a and 24 % of Cmp 1a; Ca2+ signal (% of Cmp 1a) (log [Compound] M -6.5, replicate experiments): 4.41 % of Cmp 1a and 3 % of Cmp 1a; Ca2+ signal (% of Cmp 1a) (log [Compound] M -7.0, replicate experiments): 3.62 % of Cmp 1a and -1.16 % of Cmp 1a; Ca2+ signal (% of Cmp 1a) (log [Compound] M -7.5, replicate experiments): -4.26 % of Cmp 1a and -2.55 % of Cmp 1a; Ca2+ signal (% of Cmp 1a) (log [Compound] M -8.0, replicate experiments): -0.711 % of Cmp 1a and -3.49 % of Cmp 1a; Ca2+ signal (% of Cmp 1a) (log [Compound] M -8.5, replicate experiments): 5.56 % of Cmp 1a and 4.65 % of Cmp 1a; Ca2+ signal (% of Cmp 1a) (log [Compound] M -9.0, replicate experiments): -1.86 % of Cmp 1a and -5 % of Cmp 1a; Ca2+ signal (% of Cmp 1a) (primary screen, 10 µM compound, agonist mode, three columns = independent experiments): 75 % of Cmp 1a and 80 % of Cmp 1a and 81 % of Cmp 1a

Q: How did the EC50 (Supplementary Table 7, enantiopure compounds, read-out: pEC50, Ca2+ mobilization (converted)) turn out when `C[C@@H](NC(=O)CNC(=O)c1cccc(Cl)c1)c1ccccc1` [JNJ(R), reference compound] was run?
A: Its EC50 is 3.16 µM.

Q: And the Emax (Supplementary Table 7, read-out: Emax (%), Ca2+ mobilization)?
A: Its Emax is 99 ± 5%.

Q: And the “Ca2+ signal (% of Cmp 1a)” value (log [Compound] M -8.5, individual replicates)?
A: Its value is -4.33 % of Cmp 1a and 7 % of Cmp 1a and -3.33 % of Cmp 1a.

Q: What about the “Ca2+ signal (% of Cmp 1a)” value (log [Compound] M -9.0, individual replicates) of the same compound?
A: The value was -1.33 % of Cmp 1a and 6 % of Cmp 1a and -7 % of Cmp 1a.

Q: And the “Ca2+ signal (% of Cmp 1a)” value (log [Compound] M -12.0, individual replicates)?
A: Its value is 0 % of Cmp 1a.

Q: And the “Ca2+ signal (% of Cmp 1a)” value (log [compound] M -4.5, individual replicates)?
A: The value was 84 % of Cmp 1a and 100 % of Cmp 1a and 82 % of Cmp 1a.

Q: What about the “Ca2+ signal (% of Cmp 1a)” value (log [compound] M -5.0, individual replicates) of the same compound?
A: Its value is 66 % of Cmp 1a and 88 % of Cmp 1a and 60 % of Cmp 1a.

Q: And the “Ca2+ signal (% of Cmp 1a)” value (log [compound] M -5.5, individual replicates)?
A: Its value is 49 % of Cmp 1a and 72 % of Cmp 1a and 33 % of Cmp 1a.

Q: What about the “Ca2+ signal (% of Cmp 1a)” value (log [compound] M -6.0, individual replicates) of the same compound?
A: Its value is 28 % of Cmp 1a and 43 % of Cmp 1a and 16 % of Cmp 1a.

Q: And the “Ca2+ signal (% of Cmp 1a)” value (log [compound] M -6.5, individual replicates)?
A: The value was 13 % of Cmp 1a and 14 % of Cmp 1a and -2 % of Cmp 1a.

Q: And the “Ca2+ signal (% of Cmp 1a)” value (log [compound] M -7.0, individual replicates)?
A: The value was 4.33 % of Cmp 1a and 9 % of Cmp 1a and -10 % of Cmp 1a.

Q: And the “Ca2+ signal (% of Cmp 1a)” value (log [compound] M -7.5, individual replicates)?
A: The value was 11 % of Cmp 1a and 3.67 % of Cmp 1a and -10 % of Cmp 1a.

Q: What about the “Ca2+ signal (% of Cmp 1a)” value (log [compound] M -8.0, individual replicates) of the same compound?
A: Its value is 5.33 % of Cmp 1a (2×) and -13 % of Cmp 1a.
